Laboratory results taken from patent EP4691489A1, “GROWTH HORMONE SECRETION PROMOTER” (Scohia Pharma, Inc., priority 2023, dated 2024).

Columns and labels:
[1] = test system: healthy Japanese adult men; assay: Phase 1 single dose study, blood anterior pituitary hormone concentrations (ELISA); format: in vivo; settings: human
Method: The examples in this section show the measurement results of blood anterior pituitary hormone concentrations using blood samples from a dose escalation study targeting healthy Japanese adult men, from A Randomized, Double-Blind, Placebo-Controlled, Phase 1 Study (jRCT2051210027) targeting healthy adults, which was conducted to examine the safety and tolerability, pharmacokinetics, and pharmacodynamic action of a single administration of test compound 1.
In a randomized, double-blind, placebo-controlled, parallel-group comparison, dose-escalation study consisting of 7 cohorts, a single dose of test compound 1 (1, 3, 10, 20, 40, 80 and 160 mg) or placebo was orally administered under fasting conditions. Eight test subjects (6 in the active drug group and 2 in the placebo group) participated in each cohort. The concomitant use of all medications was prohibited from 28 days before hospitalization until discharge.
The test subjects were inspected and examined within 28-2 days and 1 day before administration of test compound 1, and eligibility was confirmed based on the above-mentioned inclusion criteria and exclusion criteria. […] They were fasted for 10 hr before administration and 4 hr after administration until lunch, and took lunch at 13:00 p.m. The blood was collected 0.5 hr before and 1, 2, 4, 6, 8, and 10 hr after administration of test compound 1.
The concentration of anterior pituitary hormone was measured using blood from the placebo administration group of all cohorts and the test subjects who received administration of 1 mg or 10 mg of test compound 1, at 0.5 hr before administration and 2, 4, 6, 8, and 10 hr after administration. The concentrations of growth hormone, follicle-stimulating hormone, luteinizing hormone, thyroid-stimulating hormone, adrenocorticotropic hormone, and prolactin in blood were measured using the Human Growth Hormone Quantikine ELISA Kit (manufactured by R&D Systems), Follicle-Stimulating Hormone (Human) ELISA Kit (manufactured by Cayman Chemical), Luteinizing Hormome (Human) ELISA Kit (manufactured by Cayman Chemical), U-TSH ELISA (manufactured by BIOCHECK), ACTH ELISA Kit (manufactured by MB Biosciences GmbH), and Human Prolactin Quantikine ELISA Kit (manufactured by R&D Systems) according to the protocol described in the package insert of each kit.

[2] = target: T1, SSTR 5 (Homo sapiens, UniProt P35346); assay: radiolabeled ligand binding assay, selectivity for human SSTR subtype; set-up: expressed in transfected cells; host or cells: CHO-K1 cells (membrane fraction)
T1 sequence (P35346 whole entry): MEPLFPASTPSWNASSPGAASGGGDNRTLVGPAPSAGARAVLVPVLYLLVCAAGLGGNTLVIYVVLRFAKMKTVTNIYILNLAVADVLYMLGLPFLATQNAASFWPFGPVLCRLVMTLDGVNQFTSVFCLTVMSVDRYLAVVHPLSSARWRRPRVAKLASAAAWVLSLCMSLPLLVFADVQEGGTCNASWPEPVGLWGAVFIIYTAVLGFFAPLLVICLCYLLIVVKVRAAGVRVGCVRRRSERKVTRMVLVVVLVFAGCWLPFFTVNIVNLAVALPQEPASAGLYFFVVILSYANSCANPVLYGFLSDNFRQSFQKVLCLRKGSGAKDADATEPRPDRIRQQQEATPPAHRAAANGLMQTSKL
Method: (§1) The selectivity of test compounds for human SSTR subtypes was investigated by radiolabeled ligand binding assay. The membrane fraction of CHO-K1 cells expressing human SSTR1-5 was suspended in am assay buffer (25 mM HEPES (pH 7.4), 5 mM MgCl2, 1 mM CaCl2, 10 µg/mL saponin, 0.5% fatty-acid free BSA) and incubated for 1 hr in the presence of 1 µM test compound 1 and [^125I] Tyr^11-somatostatin 14 (Perkin Elmer). Thereafter, the solution containing the membrane fraction was transferred onto a filter plate, and after washing the filter six times with a wash buffer (25 mM HEPES, 5 mM MgCl2, 1 mM CaCl2), 50 µL of Microscint 20 (Packard) was added, and the radioactivity was measured using a TopCount (Perkin Elmer). The results of competitive activity of the test compound against the binding of the human SSTR subtypes with the labeled ligands are shown in Table 2.

[3] = target: T1, SSTR 5; assay: human SSTR5 antagonist activity using intracellular cAMP concentration as an indicator (HTRF); format: cell-based; set-up: expressed in transfected cells; settings: 1 µM test compound; CHO (dhfr-) cells expressing human SSTR5; 0.1 nM somatostatin 28, 0.3 µM forskolin; read-out: inhibitory rate (%) against SSTR5 at 1 µM
Method: The intracellular cAMP concentration was measured using HTRF cAMP dynamic 2 kit (Cisbio). A test compound diluted with an assay buffer (5 mM HEPES (pH 7.5) (Invitrogen), 0.1% fatty-acid free BSA (Sigma), and 500 µM IBMX (Wako)-containing HBSS (Invitrogen)) was added at 2 µL/well to a 384-well white plate (Greiner) to a final concentration of 1 µM. Frozen stock of CHO (dhfr-) cells stably expressing the human SSTR5 gene (Accession No. NM_001053) was thawed in a thermostatic tank at 37°C and suspended in a passage medium (MEM alpha (Wako)) containing 10% dialyzed serum (Gemini) and 50 µg/mL gentamicin (Invitrogen). The cell suspension was centrifuged, and the cells were resuspended in an assay buffer, and added by 2 µL to each well at about 4,000 cells/well. The compound and the cells were incubated for 15 min, an assay buffer containing a final concentration 0.1 nM of somatostatin 28 (Toray Research Center) and 0.3 µM forskolin (Wako) was added by 2 µL/well, and the cells were incubated at room temperature for 30 min. cAMP-d2 and anti-cAMP-cryptate were each added by 3 µL/well, allowed to stand at room temperature for 60 min, and the fluorescence resonance energy transfer (FRET) intensity was measured using the Multi-label reader Envision (Perkin Elmer). The FRET intensity of the wells to which the test compound group was added was converted into cAMP concentration by using a calibration curve created from the FRET intensities of well groups in which cAMP at any concentration was added to the assay buffer. The inhibitory activity of the compound was calculated using the following formula. Inhibitory activity(%) = (C−B)/(A−B) × 100 [formula] • A: cAMP concentration calculated from wells containing 0.3 µM forskolin • B: cAMP concentration calculated from wells containing 0.3 µM forskolin, 0.1 nM somatostatin 28 • C: cAMP concentration of wells containing 0.3 µM forskolin, 0.1 nM somatostatin 28, and 1 µM test compound

[4] = target: T2, SSTR 3 (Homo sapiens, UniProt P32745); assay: radiolabeled ligand binding assay, selectivity for human SSTR subtype; settings: CHO-K1 membrane fraction, [125I] Tyr11-somatostatin 14, 1 µM compound
T2 construct: expressed in transfected cells; host or cells: CHO-K1 cells (membrane fraction)
T2 sequence (P32745 whole entry): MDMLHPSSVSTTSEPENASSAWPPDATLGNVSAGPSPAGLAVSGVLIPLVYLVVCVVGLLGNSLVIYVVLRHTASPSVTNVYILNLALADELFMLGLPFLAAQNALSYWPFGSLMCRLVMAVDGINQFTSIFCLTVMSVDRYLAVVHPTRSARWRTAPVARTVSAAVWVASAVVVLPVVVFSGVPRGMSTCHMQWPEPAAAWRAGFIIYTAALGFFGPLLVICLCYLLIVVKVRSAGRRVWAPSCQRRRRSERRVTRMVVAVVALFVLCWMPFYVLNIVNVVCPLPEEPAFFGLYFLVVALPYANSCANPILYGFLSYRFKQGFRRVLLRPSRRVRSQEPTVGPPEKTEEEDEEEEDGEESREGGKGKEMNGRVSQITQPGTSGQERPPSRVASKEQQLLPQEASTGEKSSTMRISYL
Method: as §1

[5] = target: T3, SSTR 2 (Homo sapiens, UniProt P30874); assay: as above; settings: CHO-K1 membrane fraction, [125I] Tyr11-somatostatin 14, 1 µM compound
T3 construct: expressed in transfected cells; host or cells: CHO-K1 cells (membrane fraction)
T3 sequence (P30874 whole entry): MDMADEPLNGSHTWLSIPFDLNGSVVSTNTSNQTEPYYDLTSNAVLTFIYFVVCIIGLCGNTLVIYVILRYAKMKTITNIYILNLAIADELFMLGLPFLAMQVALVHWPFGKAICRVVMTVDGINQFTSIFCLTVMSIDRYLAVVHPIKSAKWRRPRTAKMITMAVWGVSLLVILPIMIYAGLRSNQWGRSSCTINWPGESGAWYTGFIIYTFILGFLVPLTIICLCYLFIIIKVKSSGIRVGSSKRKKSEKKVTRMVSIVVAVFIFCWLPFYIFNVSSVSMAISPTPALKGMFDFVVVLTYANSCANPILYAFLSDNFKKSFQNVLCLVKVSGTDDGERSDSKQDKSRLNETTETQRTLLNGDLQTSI
Method: as §1

[6] = target: T4, SSTR 1 (Homo sapiens, UniProt P30872); assay: as above; settings: CHO-K1 membrane fraction, [125I] Tyr11-somatostatin 14, 1 µM compound
T4 construct: expressed in transfected cells; host or cells: CHO-K1 cells (membrane fraction)
T4 sequence (P30872 whole entry): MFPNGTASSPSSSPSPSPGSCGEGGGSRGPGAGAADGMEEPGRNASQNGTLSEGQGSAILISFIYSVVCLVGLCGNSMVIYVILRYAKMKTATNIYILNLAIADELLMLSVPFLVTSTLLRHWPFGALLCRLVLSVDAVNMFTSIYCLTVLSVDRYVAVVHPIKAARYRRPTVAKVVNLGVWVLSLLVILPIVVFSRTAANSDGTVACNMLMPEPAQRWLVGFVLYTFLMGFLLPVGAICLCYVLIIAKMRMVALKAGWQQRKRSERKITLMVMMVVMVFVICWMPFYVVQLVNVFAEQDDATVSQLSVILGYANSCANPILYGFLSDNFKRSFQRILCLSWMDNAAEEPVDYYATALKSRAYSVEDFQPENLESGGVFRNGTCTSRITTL
Method: as §1

[7] = target: T5, SSTR 4 (Homo sapiens, UniProt P31391); assay: as above; settings: CHO-K1 membrane fraction, [125I] Tyr11-somatostatin 14, 1 µM compound
T5 construct: expressed in transfected cells; host or cells: CHO-K1 cells (membrane fraction)
T5 sequence (P31391 whole entry): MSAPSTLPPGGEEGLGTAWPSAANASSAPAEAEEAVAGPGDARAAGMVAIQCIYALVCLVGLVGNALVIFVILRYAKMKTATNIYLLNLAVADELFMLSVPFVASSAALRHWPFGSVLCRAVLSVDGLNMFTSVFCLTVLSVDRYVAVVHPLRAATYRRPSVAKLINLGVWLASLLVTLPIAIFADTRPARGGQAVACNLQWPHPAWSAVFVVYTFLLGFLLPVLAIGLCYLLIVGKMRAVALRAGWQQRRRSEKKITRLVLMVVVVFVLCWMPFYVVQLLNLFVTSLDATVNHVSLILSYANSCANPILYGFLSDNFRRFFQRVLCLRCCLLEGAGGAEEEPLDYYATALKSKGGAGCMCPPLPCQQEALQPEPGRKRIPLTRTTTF
Method: as §1

CCCc1nc2c(cc1C(=O)O)C(=O)N(C1CCN(Cc3cc(C4CC4)c(-c4ccc(F)cc4)cc3OCC)CC1)CC2 [test compound 1, 6-(1-((2-cyclopropyl-5-ethoxy-4'-fluorobiphenyl-4-yl)methyl)piperidin-4-yl)-5-oxo-2-propyl-5,6,7,8-tetrahydro-1,6-naphthyridine-3-carboxylic acid]
growth hormone secretion (blood growth hormone concentration) ([1]; single oral dose 1 mg and 10 mg, fasting, up to 10 hr after administration, Fig. 1): clearly enhance growth hormone secretion | secretion of follicle-stimulating hormone ([1]; single oral dose 1 mg and 10 mg, fasting, Fig. 2): did not substantially affect the secretion | secretion of luteinizing hormone ([1]; single oral dose 1 mg and 10 mg, fasting, Fig. 3): did not substantially affect the secretion | secretion of thyroid-stimulating hormone ([1]; single oral dose 1 mg and 10 mg, fasting, Fig. 4): did not substantially affect the secretion | secretion of adrenocorticotropic hormone ([1]; single oral dose 1 mg and 10 mg, fasting, Fig. 5): did not substantially affect the secretion | secretion of prolactin ([1]; single oral dose 1 mg and 10 mg, fasting, Fig. 6): did not substantially affect the secretion | increase in blood growth hormone concentration compared with growth hormone replacement therapy ([1]; compared with literature values for patients with pediatric growth hormone deficiency (J Clin Endocrinol Metab. 2017)): corresponds to the blood growth hormone concentration obtained by growth hormone replacement therapy | labeled ligand binding rate (%) at 1 µM ([2]; SSTR 5, CHO-K1 membrane fraction, [125I] Tyr11-somatostatin 14, 1 µM compound): 4.51% | selectivity among the human SSTR subtypes ([2]; conclusion from Table 2, 1 µM): selectively binds to SSTR5 | inhibition at 1 µM [3]: 87% | labeled ligand binding rate (%) at 1 µM [4]: 99.22% | labeled ligand binding rate (%) at 1 µM [5]: 100.31% | labeled ligand binding rate (%) at 1 µM [6]: 105.83% | labeled ligand binding rate (%) at 1 µM [7]: 109.00%

CCCc1nc2c(cc1C(=O)O)C(=O)N(C1CCN(Cc3cc(C4CC4)c(-c4ccc(F)cc4)c(F)c3OCC)CC1)CC2 [test compound 2, 6-(1-((6-cyclopropyl-3-ethoxy-2,4'-difluorobiphenyl-4-yl)methyl)piperidin-4-yl)-5-oxo-2-propyl-5,6,7,8-tetrahydro-1,6-naphthyridine-3-carboxylic acid]
inhibition at 1 µM [3]: 85%

CCCc1nc2c(cc1C(=O)O)C(=O)N(C1CCN(Cc3cc(C4CC4)c(-c4ccc(F)cc4F)cc3OCC)CC1)CC2 [test compound 3, 6-(1-((2-cyclopropyl-5-ethoxy-2',4'-difluorobiphenyl-4-yl)methyl)piperidin-4-yl)-5-oxo-2-propyl-5,6,7,8-tetrahydro-1,6-naphthyridine-3-carboxylic acid]
inhibition at 1 µM [3]: 125%

CCOc1c(CN2CCC(N3CCc4nc(CC)c(C(=O)O)cc4C3=O)CC2)cc(C2CC2)c(-c2ccc(F)cc2)c1F [test compound 4, 6-(1-((6-cyclopropyl-3-ethoxy-2,4'-difluorobiphenyl-4-yl)methyl)piperidin-4-yl)-2-ethyl-5-oxo-5,6,7,8-tetrahydro-1,6-naphthyridine-3-carboxylic acid]
inhibition at 1 µM [3]: 95%

CCOc1c(CN2CCC(n3ccc(C(=O)O)c(CC)c3=O)CC2)cc(C2CC2)c(-c2ccc(F)cc2)c1F [test compound 5, 1-(1-((6-cyclopropyl-3-ethoxy-2,4'-difluorobiphenyl-4-yl)methyl)piperidin-4-yl)-3-ethyl-2-oxo-1,2-dihydropyridine-4-carboxylic acid]
inhibition at 1 µM [3]: 87%

Cc1c(C(=O)O)ccn(C2CCN(Cc3cc(C4CC4)c(-c4ccc(F)cc4)c(F)c3OC(C)C)CC2)c1=O [test compound 6, 1-(1-((6-cyclopropyl-2,4'-difluoro-3-isopropoxybiphenyl-4-yl)methyl)piperidin-4-yl)-3-methyl-2-oxo-1,2-dihydropyridine-4-carboxylic acid]
inhibition at 1 µM [3]: 99%

CCOc1c(CN2CCC(n3ccc(C(=O)O)c(C)c3=O)CC2)cc(C2CC2)c(-c2ccc(F)cc2)c1F [test compound 7, 1-(1-((6-cyclopropyl-3-ethoxy-2,4'-difluorobiphenyl-4-yl)methyl)piperidin-4-yl)-3-methyl-2-oxo-1,2-dihydropyridine-4-carboxylic acid]
inhibition at 1 µM [3]: 87%
